One data set has as its system K562 cells. The data set is described as follows: Cell death assay, Experiment 1 (live cells counted by trypan blue). Format: cell-based. Conditions: Homo sapiens, 100 nM, 48 hours, read-out: % live cells (vs control).

Our source for the viability and melting point values is patent publication US9174996B2, “Protein kinase inhibitors” (Astar Biotech LLC, priority 2012, dated 2015).

Each structure is given as a SMILES string.

In the case of `CN1CCN(Cc2ccc(NC(=O)N3CCCC(C#Cc4cnc5cccnn45)C3)cc2C(F)(F)F)CC1` (centres unmarked) [Compound 34, 3-(2-(Imidazo[1,2-b]pyridazin-3-yl)ethynyl)piperidine-N-(4-((4-methylpiperazin-1-yl)methyl)-3-(trifluoromethyl)phenyl)-1-carboxamide], the melting point lay in the range of 65 to 70 °C. The viability at 0.1 µM with K562 cells amounted to 12%.

`Cc1cn(-c2cc(NC(=O)c3ccc(Cl)c(C#Cc4cnc5cccnn45)c3)cc(C(F)(F)F)c2)cn1` [Compound 32, 4-Chloro-3-(2-(imidazo[1,2-b]pyridazin-3-yl)ethynyl)-N-(3-(4-methyl-1H-imidazol-1-yl)-5-(trifluoromethyl)phenyl)benzamide] returned a melting point of 153 to 154 °C. For the same compound, in the data set on K562 cells, the viability at 0.1 µM is 9.57%.

`CN1CCN(Cc2ccc3nc(-c4ccc(Cl)c(C#Cc5ccc(NC6CCC6)nn5)c4)[nH]c3c2)CC1` [Compound 8, 6-(2-(2-Chloro-5-(6-((4-methylpiperazin-1-yl)methyl)-1H-benzo[d]imidazol-2-yl)phenyl)ethynyl)-N-cyclobutylpyridazin-3-amine] yielded a melting point of 161 to 163 °C.

Regarding `Cc1ccc(-c2nc3ccc(CN4CCN(C)CC4)cc3[nH]2)cc1C#Cc1ccc(NC2CCC2)nn1` [Compound 1, N-Cyclobutyl-6-(2-(2-methyl-5-(6-((4-methylpiperazin-1-yl)methyl)-1H-benzo[d]imidazol-2-yl)phenyl)ethynyl)pyridazin-3-amine], the melting point lay within 148 to 150 °C.

`CC(C)Nc1ccc(C#Cc2cc(C(=O)Nc3ccc(CN4CCN(C)CC4)c(C(F)(F)F)c3)ccc2Cl)nn1` [Compound 17] had a melting point of 133 to 134 °C. Further, the viability at 0.1 µM in the data set with K562 cells worked out at 18.3%.

Regarding `Cc1cn(-c2ccc(NC(=O)c3ccc(Cl)c(C#Cc4ccc(NC(C)C)nn4)c3)cc2C(F)(F)F)cn1` [Compound 22], the melting point is 133 to 135 °C.

For the compound `Cc1cn(-c2ccc(NC(=O)c3ccc(C)c(C#Cc4ccc(NC(C)C)nn4)c3)cc2C(F)(F)F)cn1` [Compound 19, 3-(2-(6-(Isopropylamino)pyridazin-3-yl)ethynyl)-4-methyl-N-(4-(4-methyl-1H-imidazol-1-yl)-3-(trifluoromethyl)phenyl)benzamide], the melting point fell in the range of 141 to 143 °C.

With `CC(C)Nc1ccc(C#Cc2cc(-c3nc4ccc(CN5CCN(C)CC5)cc4[nH]3)ccc2Cl)nn1` [Compound 9, 6-(2-(2-Chloro-5-(6-((4-methylpiperazin-1-yl)methyl)-1H-benzo[d]imidazol-2-yl)phenyl)ethynyl)-N-isopropylpyridazin-3-amine], the melting point was 127 to 128 °C.

`Cc1cn(-c2cc(NC(=O)c3ccc(C)c(C#Cc4ccc(NC5CCC5)nn4)c3)cc(C(F)(F)F)c2)cn1` [Compound 24, 3-(2-(6-(Cyclobutylamino)pyridazin-3-yl)ethynyl)-4-methyl-N-(3-(4-methyl-1H-imidazol-1-yl)-5-(trifluoromethyl)phenyl)benzamide] returned a melting point of 223 to 225 °C. Also, the viability at 0.1 µM in the data set on K562 cells was 16.4%.

In the case of `Cc1cn(-c2ccc(NC(=O)c3ccc(Cl)c(C#Cc4ccc(NC5CCC5)nn4)c3)cc2C(F)(F)F)cn1` [Compound 21, 4-Chloro-3-(2-(6-(cyclobutylamino)pyridazin-3-yl)ethynyl)-N-(4-(4-methyl-1H-imidazol-1-yl)-3-(trifluoromethyl)phenyl)benzamide], the melting point was in the range of 153 to 155 °C.

In turn, `CN1CCN(Cc2ccc(NC(=O)c3ccc(Cl)c(C#Cc4ccc(NC5CCC5)nn4)c3)cc2C(F)(F)F)CC1` [Compound 16, 4-Chloro-3-(2-(6-(cyclobutylamino)pyridazin-3-yl)ethynyl)-N-(4-((4-methylpiperazin-1-yl)methyl)-3-(trifluoromethyl)phenyl)benzamide] had a melting point of 132 to 133 °C. Besides, the viability at 0.1 µM with K562 cells turned out to be 8.46%.

Take `Cc1cn(-c2ccc(NC(=O)c3ccc(C)c(C#Cc4ccc(NC5CC5)nn4)c3)cc2C(F)(F)F)cn1` [Compound 18, 3-(2-(6-(Cyclopropylamino)pyridazin-3-yl)ethynyl)-4-methyl-N-(4-(4-methyl-1H-imidazol-1-yl)-3-(trifluoromethyl)phenyl)benzamide]: the melting point lay in the range of 125 to 126 °C.

Turning to `CN1CCN(Cc2ccc3nc(-c4ccc(Cl)c(C#Cc5ccc(NC6CC6)nn5)c4)[nH]c3c2)CC1` [Compound 7, 6-(2-(2-Chloro-5-(6-((4-methylpiperazin-1-yl)methyl)-1H-benzo[d]imidazol-2-yl)phenyl)ethynyl)-N-cyclopropylpyridazin-3-amine], the melting point fell in the range of 130 to 131 °C.

On to `Cc1cn(-c2ccc3nc(-c4ccc(C)c(C#Cc5cnc6cccnn56)c4)[nH]c3c2)cn1` [Compound 11, 3-(2-(2-Methyl-5-(6-(4-methyl-1H-imidazol-1-yl)-1H-benzo[d]imidazol-2-yl)phenyl)ethynyl)imidazo[1,2-b]pyridazine], for which the melting point fell in the range of 182 to 184 °C.

Regarding `Cc1cn(-c2cc(NC(=O)c3ccc(C)c(C#Cc4ccc(NC(C)C)nn4)c3)cc(C(F)(F)F)c2)cn1` [Compound 25, 3-(2-(6-(Isopropylamino)pyridazin-3-yl)ethynyl)-4-methyl-N-(3-(4-methyl-1H-imidazol-1-yl)-5-(trifluoromethyl)phenyl)benzamide], the melting point fell in the range of 192 to 194 °C.

`Cc1cn(-c2ccc(NC(=O)c3ccc(Cl)c(C#Cc4ccc(NC5CC5)nn4)c3)cc2C(F)(F)F)cn1` [Compound 20, 4-Chloro-3-(2-(6-(cyclopropylamino)pyridazin-3-yl)ethynyl)-N-(4-(4-methyl-1H-imidazol-1-yl)-3-(trifluoromethyl)phenyl)benzamide] gave a melting point of 150 to 152 °C.

In turn, `CN1CCN(Cc2ccc(NC(=O)N3CCC(C#Cc4cnc5cccnn45)C3)cc2C(F)(F)F)CC1` (centres unmarked) [Compound 35, 3-(2-(Imidazo[1,2-b]pyridazin-3-yl)ethynyl)pyrrolidine-N-(4-((4-methylpiperazin-1-yl)methyl)-3-(trifluoromethyl)phenyl)-1-carboxamide] gave a melting point of 83 to 85 °C. Moreover, in the data set with K562 cells, the viability at 0.1 µM worked out at 11.3%.

Compound `Cc1cn(-c2ccc(NC(=O)c3ccc(Cl)c(C#Cc4cnc(NC5CC5)nc4)c3)cc2C(F)(F)F)cn1` [Compound 29, 4-Chloro-3-(2-(2-(cyclopropylamino)pyrimidin-5-yl)ethynyl)-N-(4-(4-methyl-1H-imidazol-1-yl)-3-(trifluoromethyl)phenyl)benzamide] had a melting point of 141 to 143 °C. In addition, the viability at 0.1 µM in the data set on K562 cells was determined as 5.87%.

In turn, `Cc1cn(-c2cc(NC(=O)c3ccc(Cl)c(C#Cc4ccc(NC5CC5)nn4)c3)cc(C(F)(F)F)c2)cn1` [Compound 26, 4-Chloro-3-(2-(6-(cyclopropylamino)pyridazin-3-yl)ethynyl)-N-(3-(4-methyl-1H-imidazol-1-yl)-5-(trifluoromethyl)phenyl)benzamide] registered a melting point of 213 to 215 °C. Also, in the data set with K562 cells, the viability at 0.1 µM turned out to be 18.3%.

Turning to `Cc1ccc(C(=O)Nc2ccc(CN3CCN(C)CC3)c(C(F)(F)F)c2)cc1C#Cc1cnc2cccnn12` [AP-24534, reference compound], in the data set with K562 cells, the viability at 0.1 µM stood at 10.1%.

Consider `Cc1ccc(-c2nc3ccc(CN4CCN(C)CC4)cc3[nH]2)cc1C#Cc1cnc(NC2CC2)nc1` [Compound 5, N-Cyclopropyl-5-(2-(2-methyl-5-(6-((4-methylpiperazin-1-yl)methyl)-1H-benzo[d]imidazol-2-yl)phenyl)ethynyl)pyrimidin-2-amine], for which the melting point is 136 to 137 °C. In the data set with K562 cells, the viability at 0.1 µM came to 10.8%.

In turn, `CN1CCN(Cc2ccc(NC(=O)c3ccc(Cl)c(C#Cc4ccc(NC5CC5)nn4)c3)cc2C(F)(F)F)CC1` [Compound 15, 4-Chloro-3-(2-(6-(cyclopropylamino)pyridazin-3-yl)ethynyl)-N-(4-((4-methylpiperazin-1-yl)methyl)-3-(trifluoromethyl)phenyl)benzamide] registered a melting point of 133 to 134 °C. The viability at 0.1 µM in the data set on K562 cells amounted to 17%.

`Cc1ccc(C(=O)Nc2ccc(CN3CCN(C)CC3)c(C(F)(F)F)c2)cc1C#Cc1ccc(NC(C)C)nn1` [Compound 14, 3-(2-(6-(Isopropylamino)pyridazin-3-yl)ethynyl)-4-methyl-N-(4-((4-methylpiperazin-1-yl)methyl)-3-(trifluoromethyl)phenyl)benzamide] yielded a melting point of 67 to 68 °C. The viability at 0.1 µM with K562 cells came to 8.37%.

Turning to `Cc1cn(-c2ccc(NC(=O)c3ccc(Cl)c(C#Cc4cnc5cccnn45)c3)cc2C(F)(F)F)cn1` [Compound 31, 4-Chloro-3-(2-(imidazo[1,2-b]pyridazin-3-yl)ethynyl)-N-(4-(4-methyl-1H-imidazol-1-yl)-3-(trifluoromethyl)phenyl)benzamide], the melting point fell in the range of 153 to 155 °C. Besides, the viability at 0.1 µM with K562 cells was 14.4%.

Compound `Cc1cn(-c2cc(NC(=O)c3ccc(Cl)c(C#Cc4ccc(NC5CCC5)nn4)c3)cc(C(F)(F)F)c2)cn1` [Compound 27, 4-Chloro-3-(2-(6-(cyclobutylamino)pyridazin-3-yl)ethynyl)-N-(3-(4-methyl-1H-imidazol-1-yl)-5-(trifluoromethyl)phenyl)benzamide] returned a melting point of 225 to 227 °C.

Regarding `Cc1ccc(-c2nc3ccc(CN4CCN(C)CC4)cc3[nH]2)cc1C#Cc1ccc(NC2CC2)nn1` [Compound 2, N-Cyclopropyl-6-(2-(2-methyl-5-(6-((4-methylpiperazin-1-yl)methyl)-1H-benzo[d]imidazol-2-yl)phenyl)ethynyl)pyridazin-3-amine], the melting point lay within 145 to 146 °C.

Compound `Cc1ccc(-c2nc3ccc(CN4CCN(C)CC4)cc3[nH]2)cc1C#Cc1ccc(NC(C)C)nn1` [Compound 4, N-Isopropyl-6-(2-(2-methyl-5-(6-((4-methylpiperazin-1-yl)methyl)-1H-benzo[d]imidazol-2-yl)phenyl)ethynyl)pyridazin-3-amine] had a melting point of 129 to 130 °C.

As to `Cc1cn(-c2ccc(NC(=O)c3ccc(C)c(C#Cc4cnc(NC5CC5)nc4)c3)cc2C(F)(F)F)cn1` [Compound 28, 3-(2-(2-(Cyclopropylamino)pyrimidin-5-yl)ethynyl)-4-methyl-N-(4-(4-methyl-1H-imidazol-1-yl)-3-(trifluoromethyl)phenyl)benzamide], the melting point is 131 to 133 °C. Also, the viability at 0.1 µM in the data set on K562 cells is 12.7%.
